# According to US6447801B1, “Anti-parasitic action of N,N-diethyl-m-toluamide (deet) and formulations that prolong its activity in the skin” (priority 1997, dated 2002):
# How the values were obtained:
# [1] = tested on: cercariae of Schistosoma mansoni; assay: In vitro effects of DEET on S. mansoni cercariae (viability by neutral red); type: cell-based
# Method: FIG. 1 illustrates the in vitro effects of DEET on S. mansoni cercariae. In vitro effects of DEET on cercariae of Schistosoma mansoni. Cercariae were placed in 96 well titre plates coated previously with a serial doubling dilutions of DEET ranging from 30% to 0.24%. At different time periods after exposure to DEET, the percent viability of cercariae was evaluated by neutral red exclusion method. The experiment was repeated 17 times with an “n” of 189 to 440 cercariae for each treatment.
# Based on the foregoing observations, DEET was tested for its effects on S. mansoni cercariae. DEET is commercially available and was purchased from Fluka Chemicals Corp. (Ronkonkoma, N.Y.). For in vitro studies, serial doubling dilutions of DEET ranging from 30% to 0.24% were prepared in isopropanol(Sigma, St. Louis, Mo.) and 50 μl of each dilution was transferred to individual wells of a 96 well flat bottom micro titre plate (Costar, Cambridge, Mass.). Control wells received 50 μl of isopropanol each. The plates were then kept covered in a fume hood and the fluid was allowed to evaporate overnight. The following day approximately 50 cercariae of S. mansoni suspended in 50 μl of RPMI-1640 media (pH 7.4; Gibco BRL) or phosphate buffered saline (PBS, pH 7.0) was placed in each well and the viability of the cercariae were monitored at 30 min, 60 min, and 4 hrs. A total of 17 replicas were performed for each dilution and for each time point in any one given experiment. To determine the viability of cercariae, 10 μl of a 0.05% Neutral Red (Sigma Chemical Co.) was added to each well at the end of the experiment and the percentage of live and dead cercariae was determined as described in He et al., Acta Zoologica Sinica, 31:240-245 (1985).
# [2] = tested on: insects; details: normally; cited from earlier work
# [3] = tested on: cercariae of S. mansoni; assay: Wash-off tests with DEET and Lipodeet in schistosomiasis (mice); type: in vivo, Schistosoma mansoni
# Method: After bathing, mice were allowed to dry completely. The abdominal skin of these mice was then exposed to 150 cercariae of S. mansoni labeled with ^35S-methionine. Degree of protection conferred by Lipodeet and DEET after the wash off treatment was evaluated by monitoring the entry of parasites into the skin by compressed organ autoradiography techniques as described earlier (Li et. al. Parasitology International 46:55-65, 1997).
# [4] = tested on: Amblyoma americanum; assay: Tick attachment to rabbit ear, Amblyoma americanum; type: in vivo
# Method: (§1) To determine the effect of DEET on tick attachment and feeding we used two species of ticks Amblyoma americanum and Dermacetor variabilis purchased from University of Oklahoma. Ticks were allowed to feed on the ears of male New Zealand white rabbits purchased from Charles River. For feeding, five ticks were introduced into a 60 μm sieve cell well (Fisher Scientific) which was attached to the ear of the rabbit with nail glue. Ticks were observed every 30 minutes for the first eight hours to assess skin attachment and feeding behavior. Tick attachment was defined as the minimum time required for 3 of the 5 ticks to attach to the ear. […] The observation was continued for 72 hours for both species of ticks. Separate rabbits were used for each species and for each treatment. […] All the ticks in this study were active until attachment.
# (§2) In this series of experiments, the protective effect(s) of different concentrations of DEET and Lipodeet on the attachment of nymphs and adults of two species of ticks, A. americanum and D. variabilis, to the rabbit ear was evaluated. Experiments were set up wherein different concentrations (20% or 40% of DEET or Lipodeet were applied (0.2 ml of the samples to 10 cm^2 surface area), onto the dorsal side of the ear lobes of a rabbit. After allowing the preparation to dry for 30 min., sieve cups (Fisher Scientific, 1″ inner diameter) were then attached to the ear lobes using nail glue. Ten nymphs or five adult ticks were then introduced into the sieve cups every 24 hrs through a small slit made on the sieve membrane. Attachment of ticks to the skin was monitored every 24 hrs. for up to 72 hrs. after introduction of the ticks.
# (§3) More than 60% of ticks used in our experiments were dead after contact with Lipodeet. Although a well-aerated sieve cup was used (1″ inner diameter), we initially thought that the tick mortality may be due to possible DEET vapor trapped within the sieve cup. Therefore, we designed experiments where one half of the surface area of skin within the sieve cup was treated with 40% Lipodeet and the other half was left untreated. Five adults ticks of A. americanum were then introduced into the sieve cups every 24 hrs. After 72 hrs., the sieve cups were removed.
# [5] = Absorption through skin: DEET level in plasma by HPLC; type: in vivo, mice; details: 200 μl of 60% on abdominal skin
# Method: Briefly, the Bond-Elute cartridges were activated by washing with two ml of HPLC grade acetonitrile (Sigma chemicals Co., St. Louis, Mo.) followed by two ml of deionized, degassed filtered water. A low vacuum (<0.5 in Hg) was applied for the wash using a Vac-Elute manifold (Varian Analytical Supplies Co.). […] Hg). The cartridge was then washed with three mls. of acetonitrile-ammoniumacetate (pH 4.5, 0.03 M, at 40:60 V:V) under low vacuum (<0.5 in. Hg). The eluant was then injected directly onto columns (ODS-1, 250×4.6 mm, Alltech Co., Deerfield, Ill.) for HPLC analysis (Waters, Division of Millipore, Milford, Mass.). Chromatographic conditions used for HPLC analysis is as follows: Mobil phase: acetonitrile-ammoniumacetate (pH 4.5, 0.03M, at 36:64 v:v), flow rate 1.0 ml/min, UV detection at 220 nm. Sensitivity was set at 0.01AUFS. […].
# [6] = tested on: Dermacetor variabilis; assay: Tick attachment to rabbit ear, Dermacetor variabilis; type: in vivo
# Method: as §1, §2, §3
smiles,measurement,setting,value
"CCN(CC)C(=O)c1cccc(C)c1 [DEET, N,N-diethyl-m-toluamide]",time to immobilize all the cercariae,[1]; DEET 7.5%,≤ 5 min
same,cercariae dead,"[1]; DEET 7.5%, by 4 hours",100%
same,immobilization of cercariae,[1]; DEET at concentrations of 15% and above,immediately immobilized
same,cercariae dead (neutral red staining),"[1]; DEET at concentrations of 15% and above, 30 minutes",100%
same,immobilizing or killing of cercariae,[1]; concentrations below 7.5% of DEET,less effective in immobilizing or killing cercariae
same,duration of effect under field condition,[2],eight hours
same,protective effect after wash-off,"[3]; 10%, five minutes of exposure to water, irrespective of water temperature",significantly (p<0.01) abolished the protective effects of DEET
same,protective effect after wash-off,[3]; concentration increased to 20%,slightly improved the retention of protective ability of DEET
same,initial time with no tick attachment,"[4]; 10% DEET on rabbit ear, normal rabbits 20 hours",22.0 h
same,adult ticks attached,"[4]; 20%, adults, by 48 hrs (2/10)",20%
same,adult ticks attached,"[4]; 20%, adults, by 72 hrs (6/15)",40%
same,prevention of adult tick attachment,"[4]; 20%, adults, up to 24 hrs",prevented tick attachment
same,reduction of attachment of A. americanum nymphs to rabbit ear,"[4]; 20%, from 24 to 72 hrs, untreated 40% attached",50%
same,"site of tick attachment, half of the skin in the sieve cup treated","[4]; 40%, adult A. americanum, after 72 hrs",ticks were seen attached to both treated and untreated surfaces
same,adult ticks attached,"[4]; 40%, adults, at 48 hrs (1/10)",10%
same,adult ticks attached,"[4]; 40%, adults, by 72 hrs (3/15)",20%
same,ticks attached to the skin,"[4]; 40%, nymphs, by 48 hrs",20%
same,prevention of tick attachment,"[4]; 40%, nymphs, up to 24 hrs",completely prevented tick attachment to the skin
same,DEET present in the plasma,[5]; 15 min,11.6 mg
same,"DEET present in the plasma, percent",[5]; 15 min,9.7%
same,DEET present in the plasma,[5]; 30 min,5.3 mg
same,"DEET present in the plasma, percent",[5]; 30 min,4.4%
same,DEET present in the plasma,[5]; 60 min,~0.182 mg
same,"DEET present in the plasma, percent",[5]; 60 min,0.15%
same,initial time with no tick attachment,"[6]; 10% DEET on rabbit ear, normal rabbits 4.5 hours",7.0 h
same,time effective in preventing attachment of adult ticks,"[6]; 20%, adults",up to 24 hrs
same,time effective in preventing attachment of nymphs,"[6]; 20%, nymphs",up to 48 hrs
same,"effect of raising concentration, adult ticks","[6]; 40% versus 20%, adults",slightly more effective at 48 hrs
same,"effect of raising concentration, nymphs","[6]; 40% versus 20%, nymphs",no added advantage against nymphs
